According to paper PMC8515367 (ACS Omega, 2021):
Residue numbers refer to the chain shown, from its start. Several values for one entry are separate records, joined by “and”; a condition that tells them apart may be missing. Equal entries are not always repeated. Where two headings read alike, the source gives them in different places.

What was measured:
[1] = test system: T113V mutants of ecDHFR; details: cited from earlier work
[2] = biological target: T1, wildtype ecDHFR (Escherichia coli, UniProt P0ABQ4); experiment: Ligand-binding assay, tryptophan fluorescence titration
T1 sequence (P0ABQ4 1-159): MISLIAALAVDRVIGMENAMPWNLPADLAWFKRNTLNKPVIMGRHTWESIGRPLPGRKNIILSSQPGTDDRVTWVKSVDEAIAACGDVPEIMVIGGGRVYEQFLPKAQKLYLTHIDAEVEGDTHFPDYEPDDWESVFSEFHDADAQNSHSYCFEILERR

[3] = biological target: T2, M42F-ecDHFR (Escherichia coli, UniProt P0ABQ4, M42F); experiment: as above
T2 sequence (P0ABQ4 1-159 M42F): T1 sequence (P0ABQ4 1-159) with M42F

[4] = biological target: T3, T113V-ecDHFR (Escherichia coli, UniProt P0ABQ4, T113V); experiment: as above
T3 sequence (P0ABQ4 1-159 T113V): T1 sequence (P0ABQ4 1-159) with T113V

[5] = biological target: T4, G121S-ecDHFR (Escherichia coli, UniProt P0ABQ4, G121S); experiment: as above
T4 sequence (P0ABQ4 1-159 G121S): T1 sequence (P0ABQ4 1-159) with G121S

[6] = biological target: T5, G121V-ecDHFR (Escherichia coli, UniProt P0ABQ4, G121V); experiment: as above
T5 sequence (P0ABQ4 1-159 G121V): T1 sequence (P0ABQ4 1-159) with G121V

[7] = biological target: T6, M42F/G121S-ecDHFR (Escherichia coli, UniProt P0ABQ4, G121S/M42F); experiment: as above
T6 sequence (P0ABQ4 1-159 M42F/G121S): T1 sequence (P0ABQ4 1-159) with M42F, G121S

[8] = biological target: T7, M42F/G121V-ecDHFR (Escherichia coli, UniProt P0ABQ4, G121V/M42F); experiment: as above
T7 sequence (P0ABQ4 1-159 M42F/G121V): T1 sequence (P0ABQ4 1-159) with M42F, G121V

[9] = biological target: T8, T113V/G121S-ecDHFR (Escherichia coli, UniProt P0ABQ4, G121S/T113V); experiment: as above
T8 sequence (P0ABQ4 1-159 T113V/G121S): T1 sequence (P0ABQ4 1-159) with T113V, G121S

[10] = biological target: T9, T113V/G121V-ecDHFR (Escherichia coli, UniProt P0ABQ4, G121V/T113V); experiment: as above
T9 sequence (P0ABQ4 1-159 T113V/G121V): T1 sequence (P0ABQ4 1-159) with T113V, G121V

[11] = biological target: T6, M42F/G121S-ecDHFR; experiment: Double-mutant cycle analysis of ligand binding; details: A′ = M42F, B′ = G121S
[12] = biological target: T7, M42F/G121V-ecDHFR; experiment: Double-mutant cycle analysis of ligand binding; details: A′ = M42F, B′ = G121V
[13] = biological target: T8, T113V/G121S-ecDHFR; experiment: Double-mutant cycle analysis of ligand binding; details: A′ = T113V, B′ = G121S
[14] = biological target: T9, T113V/G121V-ecDHFR; experiment: Double-mutant cycle analysis of ligand binding; details: A′ = T113V, B′ = G121V
[15] = biological target: T1, wildtype ecDHFR; details: read-out: KD^NADPH, previous reports; cited from earlier work
[16] = biological target: T4, G121S-ecDHFR; details: cited from earlier work
[17] = biological target: T5, G121V-ecDHFR; details: cited from earlier work

Nc1nc(=O)c2c([nH]1)NCC(CNc1ccc(C(=O)N[C@@H](CCC(=O)O)C(=O)O)cc1)=N2 [H2F, 7,8-dihydrofolate]
decrease in H2F-binding affinity [1]: 20–30 fold

NC(=O)C1=CN([C@@H]2O[C@H](COP(=O)(O)OP(=O)(O)OC[C@H]3O[C@@H](n4cnc5c(N)ncnc54)[C@H](OP(=O)(O)O)[C@@H]3O)[C@@H](O)[C@H]2O)C=CC1 [NADPH, nicotinamide adenine dinucleotide phosphate]
Kd ([2]; KD^NADPH, 5 μM ecDHFR, ΔF340nm analysis, fitted up to 100 μM NADPH): 1.23 ± 0.06 µM | KD^NADPH weaker than previous reports ([2]; versus 0.34 and […]): 3∼4 fold | Kd [3]: 33.6 ± 2.67 µM | Kd [4]: 13.7 ± 1.82 µM | Kd [5]: 9.73 ± 2.4 µM | Kd [6]: 12.2 ± 1.41 µM | Kd [7]: 116 ± 20.1 µM | Kd [8]: 74 ± 9.09 µM | Kd [9]: 77.5 ± 19.2 µM | Kd [10]: 137 ± 1.94 µM | ΔG1 [11]: 8.20 kcal/mol | ΔG2 [11]: 5.12 kcal/mol | ΔG′1 [11]: 6.13 kcal/mol | ΔG′2 [11]: 3.06 kcal/mol | ΔΔG [11]: –2.06 kcal/mole | ΔG1 [12]: 8.20 kcal/mol | ΔG2 [12]: 5.69 kcal/mol | ΔG′1 [12]: 4.45 kcal/mol | ΔG′2 [12]: 1.95 kcal/mol | ΔΔG [12]: –3.75 kcal/mole | ΔG1 [13]: 5.98 kcal/mol | ΔG2 [13]: 5.12 kcal/mol | ΔG′1 [13]: 5.19 kcal/mol | ΔG′2 [13]: 4.33 kcal/mol | ΔΔG [13]: –0.79 kcal/mole | ΔG1 [14]: 5.98 kcal/mol | ΔG2 [14]: 5.69 kcal/mol | ΔG′1 [14]: 5.99 kcal/mol | ΔG′2 [14]: 5.71 kcal/mol | ΔΔG [14]: 0.02 kcal/mol | Kd [15]: 0.34 µM and 0.44 µM | NADPH binding weakened [16]: 10 fold | NADPH binding weakened [17]: 40 fold
